From patent US9932355B2, “2,5,6,7-tetrasubstituted thiazolo[4,5-b]pyridine derivatives and use thereof” (KYUNGPOOK NATIONAL UNIVERSITY INDUSTRY-ACADEMIC COOPERATION …, priority 2014, dated 2018)

Test system: CLP-induced sepsis mouse model
Assay: Survival rate of CLP-induced sepsis mouse model
Assay type: in vivo
Conditions: male ICR mice, CLP surgery; tail intravenous injection 12 and 50 hours after surgery; FIG. 1
Method: An anti-inflammation effect of the prepared compound was tested by a survival rate of the sepsis mouse model induced by peritonitis. A CLP-induced sepsis mouse model is an in vivo method for investigating an anti-inflammation action, and the manufacturing method of the mouse model is a widely used experiment method [Wang H, Nat. Med., 2004, 10, 1216-1221]. 40 six-week-old male ICR mice were divided into 10 mice per each group, and the survival rate was observed.
First, after the male mouse was anesthetized by respiration using isoflurane, the abdomen of the mouse was cut in the middle by approximately 2 cm to take out an appendix adjacent to intestines, and the appendix was tied up at a part apart from 0.5 mm from the end of the appendix with a 3.0-silk suture, pierced once with a 22-gauge needle, and sutured the cut part with a 4.0 silk suture. An abdomen of a sham mouse was cut and sutured without tie-up or piercing of the appendix, and after 12 and 50 hours of the surgery, the prepared compound was administered by mouse tail intravenous injection.

COc1ccc(CNc2nc3nc4c(c(-c5ccc(OC)cc5)c3s2)CCCC4)cc1 [Compound 1-65, N-(4-methoxybenzyl)-9-(4-methoxyphenyl)-5,6,7,8-tetrahydrothiazolo[4,5-b]quinoline-2-amine]
survival rate increased, compared to the only CLP-treated group: 60%
